Experiments:
[1] = target: T1, recombinant human CD38 Protein (Homo sapiens, UniProt P28907); assay: Fluorescence-based NAD+ hydrolase activity assay with human recombinant CD38 protein (Assay 3); format: biochemical; settings: read-out: Assay 3 Arithmetic mean IC50
T1 construct: purchased R&D System
T1 sequence (P28907 1-300): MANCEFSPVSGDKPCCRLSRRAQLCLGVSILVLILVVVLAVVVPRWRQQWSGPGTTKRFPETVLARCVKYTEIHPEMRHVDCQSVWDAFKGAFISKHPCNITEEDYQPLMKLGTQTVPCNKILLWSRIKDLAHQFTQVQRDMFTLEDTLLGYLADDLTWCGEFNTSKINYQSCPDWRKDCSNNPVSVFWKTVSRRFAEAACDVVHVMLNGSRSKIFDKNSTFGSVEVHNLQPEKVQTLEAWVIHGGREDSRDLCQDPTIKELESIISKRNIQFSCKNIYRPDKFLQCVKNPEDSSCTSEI
Experimental: This protocol was modified from the following references (Muller et al. (1983); (Schultz et al. (2018); (Matalonga et al. (2017); and de Oliveira et al. (2018), supra.
NAD+ hydrolase activity of the human recombinant CD38 protein treated with test compounds was measured using a fluorescence-based assay. Briefly, recombinant human CD38 Protein (R&D System) was resuspended in 44 μl/well of Sucrose-Tris Buffer (Sucrose 0.25 M, Tris pH 7.4 40 mM) and plated in a 96-well black plate (CORNING) at a density of 10 ng/well.
(§1) Each test compound was received in a powder state and dissolved in DMSO as a 25 mM stock solution. Each test compound was serially diluted in order to generate a dose-response curve. The dilution series of each test compound in DMSO was prepared at 50× the concentrations to be assayed. Each test compound was diluted to generate a 5-fold dilution series of 8 concentrations from 20 μM to 0.256 nM in order to assay 8 final concentrations ranging from ranging from 400 nM to 25.6 pM. One μl of the 50× concentration compound series was added to each well of the plate containing 10 ng protein in Sucrose-Tris buffer.
The reaction was started adding nicotinamide 1,N^6-etheno-adenine dinucleotide (Sigma Aldrich) to reach a final concentration of 80 µM. The samples were excited at 321-15 nm and the emission of fluorescence was measured at 410-20 nm at 37° C. every minute for 1 hr in a Clariostar® microplate reader (BMG LABTECH). NAD+ hydrolase activity was calculated as the slope of the linear portion of the fluorescence-time curve using the MARS data analysis software (BMG LABTECH). The data were uploaded in the Collaborative Drug Design (CDD) Software and for each compound the IC50 was calculated by the software. […] For each plate, the z-factor was also calculated as a plate quality using the CDD software.

[2] = target: T2, CD38 NAD+ hydrolase activity in NH7-dCas9 cells (Jurkat clone) (Homo sapiens, UniProt P28907); assay: Fluorescence-based NAD+ hydrolase activity assay with human T cell line NH7-dCas9 cells-Jurkat clone (Assay 1); settings: read-out: Assay 1 Arithmetic mean IC50
T2 construct: The assay utilized CD38 expressing NH7-dCas9 cells (Jurkat clone); host or cells: NH7-dCas9 cells (Jurkat clone)
T2 sequence (P28907 1-300): T1 sequence (P28907 1-300)
Experimental: For the modified assay, the performance validation criteria of the assay as a High Throughput Screening (HTS): Z-factor within the plate was greater than 0.89 (optimal HTS z-factor >0.5) and the Intra-plate, inter-plate and day to day variability (CV) was less than 20%.
NAD+ hydrolase activity of a human T cell line treated with test compounds was measured using a fluorescence-based assay. NH7-dCas9 cells (Jurkat clone) were provided by the Weissman Lab (UCSF 1700 4th St., Byers Hall, Room 403B, San Francisco, CA 94158-2330). Briefly, cells were centrifuged, resuspended in 44 μl PBS/10^6 cells and plated in a 96 well black plate (CORNING) at a density of 1×10^6 per well.
as §1, with “at 50 times” for “at 50×”, “from” for “from ranging from”, “containing 1×10^6 cells” for “containing 10 ng protein”, “in PBS.” for “in Sucrose-Tris buffer.”
Each plate had the following intra plate controls: 3 wells containing cells treated with vehicle only (DMSO), 3 wells of cells treated with the reference compound 78c at a final concentration of 50 nM and 2 wells containing only PBS (used as a background value).
The reaction was started by adding nicotinamide 1,N^6-etheno-adenine dinucleotide (Sigma Aldrich) to reach a final concentration of 80 µM. The samples were excited at 321-15 nm, and the emission of fluorescence was measured at 410-20 nm at 37° C. every minute for 1 hr in a Clariostar® microplate reader (BMG LABTECH). NAD+ hydrolase activity was calculated as the slope of the linear portion of the fluorescence-time curve using the MARS data analysis software (BMG LABTECH). The data were uploaded in the Collaborative Drug Design (CDD) Software and for each compound the IC50 was calculated by the software. Each compound was tested in 3 independent experiments on 3 separate days to establish the reproducibility of the results. For each plate, the z-factor was also calculated as a plate quality using the CDD software.

Structure (SMILES)	IC50 [1] [nM]	IC50 [2] [nM]
Cc1ccc(NC(=O)c2cccc(-n3ccnc3)n2)cn1 [Compound 14]	1 to 50	1 to 50
O=C(Nc1ccnc(C(F)(F)F)c1)c1cccc(-n2ccnc2)n1 [Compound 28]	1 to 50	< 1
CC(=O)N(C)c1ccc(NC(=O)c2cccc(-n3ccnc3)n2)cn1 [Compound 15]	1 to 50	1 to 50
O=C(Nc1ccc(C(F)(F)F)nc1)c1cccc(-n2ccnc2)n1 [Compound 9]	1 to 50	1 to 50
O=C(Nc1ccncn1)c1cccc(-n2ccnc2)n1 [Compound 24]	1 to 50	1 to 50
Cc1cc(NC(=O)c2cccc(-n3ccnc3)n2)ccn1 [Compound 11]	1 to 50	1 to 50
O=C(Nc1ccnc(C(F)(F)F)c1)c1cc(OCc2ccccc2)cc(-n2ccnc2)n1 [Compound 29, 4-(benzyloxy)-6-(1H-imidazol-1-yl)-N-[2-(trifluoromethyl)pyridin-4-yl]pyridine-2-carboxamide]	1 to 50	< 1
O=C(Nc1ccnc(F)c1)c1cccc(-n2ccnc2)n1 [Compound 8]	1 to 50	< 1
O=C(Nc1ccnc(C(F)(F)F)c1)c1cc(OCC2CCOCC2)cc(-n2ccnc2)n1 [Compound 30, 6-(1H-imidazol-1-yl)-4-((tetrahydro-2H-pyran-4-yl)methoxy)-N-(2-(trifluoromethyl)pyridin-4-yl)picolinamide]	1 to 50	< 1
CNC(=O)c1ccc(NC(=O)c2cccc(-n3ccnc3)n2)cn1 [Compound 2]	< 1	< 1
COc1cc(NC(=O)c2cccc(-n3ccnc3)n2)ccn1 [Compound 12]	1 to 50	1 to 50
COc1ccc(NC(=O)c2cccc(-n3ccnc3)n2)cn1 [Compound 18]	1 to 50	1 to 50
COCCOc1cc(C(=O)Nc2ccnc(C(F)(F)F)c2)nc(-n2ccnc2)c1 [Compound 31, 6-(1H-imidazol-1-yl)-4-(2-methoxyethoxy)-N-(2-(trifluoromethyl)pyridin-4-yl)picolinamide]	1 to 50	< 1
COC(=O)c1ccc(NC(=O)c2cccc(-n3ccnc3)n2)cn1 [Compound 27]	1 to 50	1 to 50
O=C(Nc1cccnc1)c1cccc(-n2ccnc2)n1 [Compound 20]	1 to 50	1 to 50

Results, then the molecule that gave them:

IC50 [1] [nM]	IC50 [2] [nM]	Structure (SMILES)
< 1		O=C(Nc1ccnc(C(F)(F)F)c1)c1cc(C2CC2)nc(-n2ccnc2)n1 [Compound 51, 6-cyclopropyl-2-(1H-imidazol-1-yl)-N-(2-(trifluoromethyl)pyridin-4-yl)pyrimidine-4-carboxamide]
< 1	< 1	COc1cc(C(=O)Nc2ccnc(C(F)(F)F)c2)nc(-n2ccnc2)n1 [Compound 37, 2-(1H-imidazol-1-yl)-6-methoxy-N-(2-(trifluoromethyl)pyridin-4-yl)pyrimidine-4-carboxamide]
< 1	< 1	Cc1cc(C(=O)Nc2cccnc2)nc(-n2ccnc2)n1 [Compound 49, 2-(1H-imidazol-1-yl)-6-methyl-N-(pyridin-3-yl)pyrimidine-4-carboxamide]
1 to 50	1 to 50	Cn1cncc1-c1cccc(C(=O)Nc2cccnc2)n1 [Compound 42, 6-(1-methyl-1H-imidazol-5-yl)-N-(pyridin-3-yl)picolinamide]
1 to 50	1 to 50	COc1cc(C(=O)Nc2cccnc2)nc(-n2ccnc2)c1 [Compound 36]
1 to 50	< 1	Cc1cc(C(=O)Nc2ccc(C(N)=O)nc2)nc(-n2ccnc2)c1 [Compound 54, N-(6-carbamoylpyridin-3-yl)-6-(1H-imidazol-1-yl)-4-methylpicolinamide]
1 to 50	< 1	COc1cc(C(=O)Nc2ccnc(C(F)(F)F)c2)nc(-n2ccnc2)c1 [Compound 35, 6-(1H-imidazol-1-yl)-4-methoxy-N-(2-(trifluoromethyl)pyridin-4-yl)picolinamide]
< 1	< 1	CNC(=O)c1ccc(NC(=O)c2cc(C)cc(-n3ccnc3)n2)cn1 [Compound 57]
1 to 50	< 1	Cc1cc(C(=O)Nc2ccncc2)nc(-n2ccnc2)c1 [Compound 52, 6-(1H-imidazol-1-yl)-4-methyl-N-(pyridin-4-yl)picolinamide]
1 to 50	1 to 50	O=C(Nc1cccnc1)c1ccc(F)c(-n2ccnc2)n1 [Compound 61]
1 to 50	< 1	CNC(=O)c1cc(NC(=O)c2cc(C)cc(-n3ccnc3)n2)ccn1 [Compound 56]
1 to 50	1 to 50	Cn1ccnc1-c1cccc(C(=O)Nc2cccnc2)n1 [Compound 48]
< 1	< 1	CN(C)CCOc1cc(C(=O)Nc2ccnc(C(F)(F)F)c2)nc(-n2ccnc2)c1 [Compound 33]
1 to 50		O=C(Nc1ccnc(C(F)(F)F)c1)c1cc(OC2CC2)nc(-n2ccnc2)n1 [Compound 40]
< 1	< 1	O=C(Nc1ccnc(C(F)(F)F)c1)c1cc(OC2CC2)cc(-n2ccnc2)n1 [Compound 32, 4-cyclopropoxy-6-(1H-imidazol-1-yl)-N-(2-(trifluoromethyl)pyridin-4-yl)picolinamide]
< 1	< 1	Cc1cc(C(=O)Nc2ccnc(C(N)=O)c2)nc(-n2ccnc2)c1 [Compound 55]
1 to 50	< 1	Cc1cc(C(=O)Nc2cccnc2)nc(-n2ccnc2)c1 [Compound 53]
< 1	< 1	Cc1cc(C(=O)Nc2ccncc2)nc(-n2ccnc2)n1 [Compound 50]
1 to 50	1 to 50	Cc1ccc(-n2ccnc2)nc1C(=O)Nc1cccnc1 [Compound 59, 6-(1H-imidazol-1-yl)-3-methyl-N-(pyridin-3-yl)picolinamide]
1 to 50		CC1(Oc2cc(C(=O)Nc3ccnc(C(F)(F)F)c3)nc(-n3ccnc3)c2)COC1 [Compound 34, 6-(1H-imidazol-1-yl)-4-((3-methyloxetan-3-yl)oxy)-N-(2-(trifluoromethyl)pyridin-4-yl)picolinamide]
1 to 50	< 1	Cn1ccnc1-c1cccc(C(=O)Nc2ccc(C(F)(F)F)nc2)n1 [Compound 47]
< 1	< 1	COCCOc1cc(C(=O)Nc2ccnc(C(F)(F)F)c2)nc(-n2ccnc2)n1 [Compound 39, 2-(1H-imidazol-1-yl)-6-(2-methoxyethoxy)-N-(2-(trifluoromethyl)pyridin-4-yl)pyrimidine-4-carboxamide]
1 to 50	1 to 50	O=C(Nc1cccnc1)c1nc(-n2ccnc2)ccc1F [Compound 62]
